Experiments:
[1] = logP determination by HPLC on reversed-phase column (C 18), EEC Directive 79/831 Annex V.A8; assay type: physicochemical; conditions: reversed-phase C 18, 43° C., acid range (0.1% aqueous phosphoric acid, acetonitrile), marked a)
In short: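 Reversed-phase C18 HPLC at 43° C, per EEC Directive 79/831 Annex V.A8, acid range: 0.1% aqueous phosphoric acid with linear 10–90% acetonitrile gradient. logP derived from retention time by linear interpolation between calibrating unbranched alkan-2-ones (C3–C16) of known logP.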

[2] = test system: caterpillars of the army worm (Spodoptera frugiperda); assay: Spodoptera frugiperda test (cabbage leaves dipped); assay type: in vivo; conditions: for Kill rate in % after 7 d: 500 ppm, leaf dip, Brassica oleracea
Protocol: (§1) [table] To produce a suitable preparation of active compound, 1 part by weight of active compound is mixed with the stated amount of solvent and the stated amount of emulsifier, and the concentrate is diluted with emulsifier-containing water to the desired concentration. Cabbage leaves (Brassica oleracea) are treated by being dipped into the active compound preparation of the desired concentration and populated with caterpillars of the army worm (Spodoptera frugiperda) while the leaves are still moist. After the desired period of time, the kill in % is determined. 100% means that all caterpillars have been killed; 0% means that none of the caterpillars have been killed.

[3] = test system: green peach aphid (Myzus persicae); assay: Myzus test (spray treatment, Brassica pekinensis); assay type: in vivo; conditions: for Kill rate in % after 5 d: 500 g/ha, spray, Brassica pekinensis disks
Protocol: (§2) [table] To produce a suitable preparation of active compound, 1 part by weight of active compound is mixed with the stated amounts of solvents and emulsifier, and the concentrate is diluted with emulsifier-containing water to the desired concentration. Disks of Chinese cabbage (Brassica pekinensis) which are infested by all stages of the green peach aphid (Myzus persicae) are sprayed with an active compound preparation of the desired concentration. After the desired period of time, the effect in % is determined. 100% means that all aphids have been killed; 0% means that none of the aphids have been killed.

[4] = test system: larvae of the mustard beetle (Phaedon cochleariae); assay: Phaedon test (spray treatment); assay type: in vivo; conditions: for Kill rate in % after 7 d: 500 g/ha, spray, Brassica pekinensis disks
Protocol: (§3) [table] To produce a suitable preparation of active compound, 1 part by weight of active compound is mixed with the stated amounts of solvents and emulsifier, and the concentrate is diluted with emulsifier-containing water to the desired concentration. Disks of Chinese cabbage (Brassica pekinensis) are sprayed with an active compound preparation of the desired concentration and, after drying, populated with larvae of the mustard beetle (Phaedon cochleariae). After the desired period of time, the effect in % is determined. 100% means that all beetle larvae have been killed; 0% means that none of the beetle larvae have been killed.

[5] = test system: common spidermite (Tetranychus urticae); assay: Tetranychus test; assay type: in vivo; conditions: for Kill rate in % after 5 d: 500 ppm, spray, Phaseolus vulgaris disks
Protocol: To produce a suitable preparation of active compound, 1 part by weight of active compound is mixed with the stated amounts of solvent and emulsifier, and the concentrate is diluted with emulsifier-containing water to the desired concentration.
Disks of beans (Phaseolus vulgaris), which are infested by all stages of the common spidermite (Tetranychus urticae) are sprayed with an active compound preparation of the desired concentration.
After the desired period of time, the effect in % is determined. 100% means that all spidermites have been killed; 0% means that none of the spidermites have been killed.

[6] = test system: larvae of the mustard beetle (Phaedon cochleariae); assay: Phaedon larvae test (cabbage leaves dipped); assay type: in vivo; conditions: for Kill rate in % after 7 d: leaf dip, Brassica oleracea
Protocol: as §1, with “with” for “with emulsifier-containing”, “with larvae” for “with caterpillars”, “the mustard beetle (Phaedon cochleariae)” for “the army worm (Spodoptera frugiperda)”, “all beetle larvae” for “all caterpillars”, “the beetle larvae” for “the caterpillars”

[7] = test system: caterpillars of the army worm (Spodoptera frugiperda); assay: Spodoptera frugiperda test (corn leaf disks sprayed); assay type: in vivo; conditions: for Kill rate in % after 7 d: 500 g/ha, spray, Zea mays leaf disks
Protocol: as §3, with “corn leaves (Zea mays)” for “Chinese cabbage (Brassica pekinensis)”, “caterpillars” for “larvae”, “army worm (Spodoptera frugiperda).” for “mustard beetle (Phaedon cochleariae).”, “caterpillars” for “beetle larvae”

[8] = test system: green peach aphid (Myzus persicae); assay: Myzus test - oral; assay type: in vivo; conditions: for Kill rate in % after 6 d: 100 ppm, oral (sucking)
Protocol: as §2, with “solvent,” for “solvents and emulsifier,”, “with” for “with emulsifier-containing”, “Vessels” for “Disks of Chinese cabbage (Brassica pekinensis) which”, “populated with” for “infested by”, “persicae), which” for “persicae)”, “treated by sucking on the” for “sprayed with an”

| logP [1] | Compound | activity in the Phaedon test (spray treatment) [4] | Kill rate in % after 7 d [4] [%] | activity in the Phaedon larvae test [6] | Kill rate in % after 7 d ([6]; 500 ppm) [%] | further results |
| --- | --- | --- | --- | --- | --- | --- |
| logP = 5.22^a) | CC(C)(C)C(=O)OC1=C(c2ccccc2Cl)C(=O)N(C2CCCCC2C(F)(F)F)C1=O (centres unmarked) [Example 206] |  |  |  |  | activity in the Myzus test (spray, Brassica pekinensis) [3]: good activity; Kill rate in % after 5 d [3]: 90% |
| logP = 5.31^a) | CC(C)(C)C(=O)OC1=C(c2ccccc2Cl)C(=O)N(C2CCC(C(F)(F)F)CC2)C1=O (centres unmarked) [Example 207] | good activity | 100 |  |  | activity in the Myzus test (spray, Brassica pekinensis) [3]: good activity; Kill rate in % after 5 d [3]: 100%; Kill rate in % after 5 d [5]: 90% |
| logP = 3.59^a) | O=C1C(O)=C(c2ccccc2Cl)C(=O)N1C1CCC(C(F)(F)F)CC1 (centres unmarked) [Example 210] |  |  | good activity | 100 |  |
| logP = 4.53^a) | CCOCOC1=C(c2ccccc2Cl)C(=O)N(C2CCCC(C(F)(F)F)C2)C1=O (centres unmarked) [Example 202] | good activity | 100 |  |  | activity in the Spodoptera frugiperda test (spray) [7]: good activity; Kill rate in % after 7 d [7]: 100%; activity in the Myzus test (spray, Brassica pekinensis) [3]: good activity; Kill rate in % after 5 d [3]: 80%; activity in the Tetranychus test [5]: good activity; Kill rate in % after 5 d [5]: 80% |
| logP = 3.57^a) | CC1CCCC(N2C(=O)C(O)=C(c3ccccc3Cl)C2=O)C1 (centres unmarked) [Example 196] | good activity | 100 |  |  | activity in the Spodoptera frugiperda test (spray) [7]: good activity; Kill rate in % after 7 d [7]: 100%; activity in the Myzus test - oral [8]: good activity; Kill rate in % after 6 d [8]: 100% |
| logP = 3.42^a) | O=C1C(O)=C(c2ccccc2F)C(=O)N1C1CCCC(C(F)(F)F)C1 (centres unmarked) [Example 213] |  |  | good activity | 100 |  |
| logP = 3.27^a) | O=C1C(O)=C(c2ccccc2Cl)C(=O)N1C1CCCCC1C(F)(F)F (centres unmarked) [Example 205] | good activity | 100 |  |  | Kill rate in % after 6 d [8]: 100% |

More lines, now with the values behind:

| Compound | logP [1] | activity in the Phaedon test (spray treatment) [4] | Kill rate in % after 7 d [4] [%] | activity in the Phaedon larvae test [6] | Kill rate in % after 7 d ([6]; 500 ppm) [%] | further results |
| --- | --- | --- | --- | --- | --- | --- |
| O=C1C(O)=C(c2cc(Cl)cc(Cl)c2)C(=O)N1c1ccc(Cl)cc1 [Example 11] | logP = 3.27^a) |  |  |  |  | activity in the Spodoptera frugiperda test (leaf dip) [2]: good activity; Kill rate in % after 7 d [2]: 100% |
| O=C1C(O)=C(c2cc(Cl)cc(Cl)c2)C(=O)N1C1CCC(C(F)(F)F)CC1 (centres unmarked) [Example 212] | logP = 4.48^a) | good activity | 100 | good activity | 100 | activity in the Spodoptera frugiperda test (leaf dip) [2]: good activity; Kill rate in % after 7 d [2]: 100%; activity in the Spodoptera frugiperda test (spray) [7]: good activity; Kill rate in % after 7 d [7]: 100% |
| CC(C)(C)C(=O)OC1=C(c2ccccc2I)C(=O)N(C2CCCC(C(F)(F)F)C2)C1=O (centres unmarked) [Example 221] |  | good activity | 100 |  |  | activity in the Myzus test (spray, Brassica pekinensis) [3]: good activity; Kill rate in % after 5 d [3]: 100%; activity in the Tetranychus test [5]: good activity; Kill rate in % after 5 d [5]: 80% |
| O=C1C(O)=C(c2c(Cl)cc(C(F)(F)F)cc2Cl)C(=O)N1C1CCCC(C(F)(F)F)C1 (centres unmarked) [Example 191] | logP = 4.05^a) | good activity | 100 |  |  | activity in the Tetranychus test [5]: good activity; Kill rate in % after 5 d [5]: 90% |
| O=C1C(O)=C(c2ccc(C(F)(F)F)cc2)C(=O)N1c1ccc(C(F)(F)F)cc1 [Example 13] | logP = 3.51^a) |  |  |  |  | activity in the Spodoptera frugiperda test (leaf dip) [2]: good activity; Kill rate in % after 7 d [2]: 100% |
| O=C1C(O)=C(c2ccccc2C(F)(F)F)C(=O)N1C1CCCC(C(F)(F)F)C1 (centres unmarked) [Example 217] |  | good activity | 100 |  |  | activity in the Spodoptera frugiperda test (spray) [7]: good activity; Kill rate in % after 7 d [7]: 100%; activity in the Myzus test (spray, Brassica pekinensis) [3]: good activity; Kill rate in % after 5 d [3]: 100%; activity in the Myzus test - oral [8]: good activity; Kill rate in % after 6 d [8]: 100% |
| CC(C)(c1ccccc1)N1C(=O)C(O)=C(c2cccc(C(F)(F)F)c2)C1=O [Example 7] |  |  |  | good activity |  | Kill rate in % after 7 d ([6]; 1000 ppm): 100% |
| O=C1C(O)=C(c2ccccc2Br)C(=O)N1C1CCCC(C(F)(F)F)C1 (centres unmarked) [Example 218] |  | good activity | 100 |  |  | activity in the Spodoptera frugiperda test (spray) [7]: good activity; Kill rate in % after 7 d [7]: 100%; activity in the Myzus test (spray, Brassica pekinensis) [3]: good activity; Kill rate in % after 5 d [3]: 80% |
| O=C1C(O)=C(c2ccc(C(F)(F)F)cc2)C(=O)N1CC(F)(F)F [Example 8] |  |  |  | good activity | 100 |  |
| O=C1C(O)=C(c2ccc(OC(F)(F)F)cc2)C(=O)N1c1ccc(OC(F)(F)F)cc1 [Example 9] | logP = 4.12^a) |  |  | good activity | 90 |  |
| O=C1C(O)=C(c2ccc(C(F)(F)F)cc2)C(=O)N1C1CCC(C(F)(F)F)CC1 (centres unmarked) [Example 211] | logP = 4.28^a) |  |  | good activity | 90 |  |
| O=C1C(O)=C(c2cc(F)cc(F)c2F)C(=O)N1C1CCCC(C(F)(F)F)C1 (centres unmarked) [Example 193] | logP = 3.42^a) | good activity | 100 |  |  | activity in the Tetranychus test [5]: good activity; Kill rate in % after 5 d [5]: 90% |
| CC(C)N1C(=O)C(O)=C(c2cccc(C(F)(F)F)c2)C1=O [Example 6] |  |  |  | good activity |  | Kill rate in % after 7 d ([6]; 1000 ppm): 100% |
| O=C1C(O)=C(c2ccc(OC(F)(F)F)cc2)C(=O)N1c1ccc(C(F)(F)F)cc1 [Example 12] | logP = 3.97^a) |  |  |  |  | activity in the Spodoptera frugiperda test (leaf dip) [2]: good activity; Kill rate in % after 7 d [2]: 100% |
| Cc1ccccc1C1=C(O)C(=O)N(C2CC(C(F)(F)F)CC(C(F)(F)F)C2)C1=O (centres unmarked) [Example 216] | logP = 3.85^a) |  |  | good activity | 100 |  |
| CC(C)C1CCCC(N2C(=O)C(O)=C(c3ccccc3Cl)C2=O)C1 (centres unmarked) [Example 195] |  | good activity | 100 |  |  | activity in the Spodoptera frugiperda test (spray) [7]: good activity; Kill rate in % after 7 d [7]: 100%; activity in the Myzus test - oral [8]: good activity; Kill rate in % after 6 d [8]: 100% |
